Data reported in patent publication US8232305B2, “Anti-microbial compositions” (BASF SE, priority 2006, dated 2012).

Assays:
Type in all cases: cell-based
Staphylococcus aureus = assay: Microbicidal activity according to EN1040; conditions: 1000 ppm, room temperature, vs growth control in water
Protocol: (§1) A bacterial suspension with a cell count of about 10^7 cfu/ml is contacted with appropriate concentrations of the specific substances and the residual cell count determined after incubation times of 5 and 30 minutes at room temperature under continuous stirring. Staphylococcus aureus was tested as gram+ and Escherichia coli as gram− organism. The results are given as a log reduction in comparison to a growth control in water.

Escherichia coli = assay: Microbicidal activity according to EN1040; conditions: 1000 ppm, room temperature, vs growth control in water
Protocol: as §1

Aureobasidium pullulans = assay: Fungicidal activity according to EN12175; conditions: spores about 10^6 cfu/ml, vs water control; for log reduction A. pullulans 30 min: 1%
Protocol: (§2) Fungicidal activity is tested according to EN12175. A fungal spore suspension with a spore cell count of about 10^6 cfu/ml is contacted with appropriate concentrations of the specific substances and the residual spore cell count determined after incubation times of 30 and 60 minutes at room temperature under continuous stirring. Penicillium funiculosum, Aspergillus niger and Aureobasidium pullulans are tested as important mold strains. The results are given as a log reduction at each incubation time in comparison to a water control.

Aspergillus niger = assay: Fungicidal activity according to EN12175; conditions: spores about 10^6 cfu/ml, vs water control; for log reduction A. niger 30 min: 1%
Protocol: as §2

Penicillium funiculosum = assay: Fungicidal activity according to EN12175; conditions: spores about 10^6 cfu/ml, vs water control; for log reduction P. funiculosum 30 min: 1%
Protocol: as §2

P. aeruginosa ATCC 15442 = assay: Microbicidal activity under conditions similar to a preservative challenge test; conditions: 0.5%, inoculum 10^5 cfu/ml
Protocol: as §1
(§3) The test procedure of Example 7 is used, with an inoculum concentration of 10^5 cfu/ml and incubation times of 48 and 72 hours; figures given as log reduction.

E. coli ATCC 10536 = assay: as above; conditions: 0.5%, inoculum 10^5 cfu/ml
Protocol: as §1, §3

A. niger ATCC 16404 = assay: as above; conditions: 0.5%, inoculum 10^5 cfu/ml
Protocol: as §1, §3

C. albicans ATCC 10231 = assay: as above; conditions: 0.5%, inoculum 10^5 cfu/ml
Protocol: as §1, §3

S. aureus ATCC 6538 = assay: as above; conditions: 0.5%, inoculum 10^5 cfu/ml
Protocol: as §1, §3

P. aerug. = assay: Preservative challenge test in cosmetic emulsions (EurPh and USP); conditions: 0.5% w/w
Protocol: (§4) A preservative challenge test is conducted for representative cosmetic formulations according to the conditions of the EurPh and USP. The compound concentration in the formulations is 0.5% w/w. The Inoculum concentration of the five different strains is 2.1-4.2×10^5 cfu/ml, incubation time according to EurPh. 2, 7, 14 and 28 days. Preservation is investigated in two different emulsion types, w/o and o/w.

A. niger = assay: as above; conditions: 0.5% w/w
Protocol: as §4

E. coli = assay: as above; conditions: 0.5% w/w
Protocol: as §4

C. albicans = assay: as above; conditions: 0.5% w/w
Protocol: as §4

S. aureus = assay: as above; conditions: 0.5% w/w
Protocol: as §4

CCCCCCCCOC(=O)C[n+]1ccn(C)c1.[Br-] [Ex 2, 1-methyl-3-(2-oxo-2-octyloxyethyl)-1H-Imidazolium bromide]
log reduction S. aureus 5 min. (Staphylococcus aureus): 3.2 log
log reduction S. aureus 30 min. (Staphylococcus aureus): 3.7 log
log reduction E. coli 5 min. (Escherichia coli): <1 log
log reduction E. coli 30 min. (Escherichia coli): 1.2 log
log reduction A. pullulans 30 min (Aureobasidium pullulans): >4 log
log reduction A. pullulans 1 h (Aureobasidium pullulans): >4 log
log reduction A. niger 30 min (Aspergillus niger): <1 log
log reduction A. niger 1 h (Aspergillus niger): 2.0 log
log reduction P. funiculosum 30 min (Penicillium funiculosum): <1 log
log reduction P. funiculosum 1 h (Penicillium funiculosum): <1 log
log reduction P. aeruginosa ATCC 15442 48 h (P. aeruginosa ATCC 15442): >3 log
log reduction P. aeruginosa ATCC 15442 72 h (P. aeruginosa ATCC 15442): >3 log
log reduction E. coli ATCC 10536 48 h (E. coli ATCC 10536): >3 log
log reduction E. coli ATCC 10536 72 h (E. coli ATCC 10536): >3 log
log reduction A. niger ATCC 16404 48 h (A. niger ATCC 16404): 1.8 log
log reduction A. niger ATCC 16404 72 h (A. niger ATCC 16404): 2.3 log
log reduction C. albicans ATCC 10231 48 h (C. albicans ATCC 10231): >3 log
log reduction C. albicans ATCC 10231 72 h (C. albicans ATCC 10231): >3 log
log reduction S. aureus ATCC 6538 48 h (S. aureus ATCC 6538): >3 log
log reduction S. aureus ATCC 6538 72 h (S. aureus ATCC 6538): >3 log
Log Reduction P. aerug. (P. aerug.; O/W emulsion, 2 days): ≧4 log
Log Reduction P. aerug. (P. aerug.; O/W emulsion, 7 days): 5 log
Log Reduction P. aerug. (P. aerug.; O/W emulsion, 14 days): 5 log
Log Reduction P. aerug. (P. aerug.; O/W emulsion, 28 days): 5 log
Log Reduction P. aerug. (P. aerug.; W/O emulsion, 2 days): 5 log
Log Reduction P. aerug. (P. aerug.; W/O emulsion, 7 days): 5 log
Log Reduction P. aerug. (P. aerug.; W/O emulsion, 14 days): 5 log
Log Reduction P. aerug. (P. aerug.; W/O emulsion, 28 days): 5 log
Log Reduction A. niger (A. niger; O/W emulsion, 2 days): 0 log
Log Reduction A. niger (A. niger; O/W emulsion, 7 days): 0 log
Log Reduction A. niger (A. niger; O/W emulsion, 14 days): 0 log
Log Reduction A. niger (A. niger; O/W emulsion, 28 days): 0 log
Log Reduction A. niger (A. niger; W/O emulsion, 2 days): 0 log
Log Reduction A. niger (A. niger; W/O emulsion, 7 days): 0 log
Log Reduction A. niger (A. niger; W/O emulsion, 14 days): 0 log
Log Reduction A. niger (A. niger; W/O emulsion, 28 days): 0 log
Log Reduction E. coli (E. coli; O/W emulsion, 2 days): 3 log
Log Reduction E. coli (E. coli; O/W emulsion, 7 days): ≧4 log
Log Reduction E. coli (E. coli; O/W emulsion, 14 days): 6 log
Log Reduction E. coli (E. coli; O/W emulsion, 28 days): 6 log
Log Reduction E. coli (E. coli; W/O emulsion, 2 days): 6 log
Log Reduction E. coli (E. coli; W/O emulsion, 7 days): 6 log
Log Reduction E. coli (E. coli; W/O emulsion, 14 days): 6 log
Log Reduction E. coli (E. coli; W/O emulsion, 28 days): 6 log
Log Reduction C. albicans (C. albicans; O/W emulsion, 2 days): 0 log
Log Reduction C. albicans (C. albicans; O/W emulsion, 7 days): 2 log
Log Reduction C. albicans (C. albicans; O/W emulsion, 14 days): ≧3 log
Log Reduction C. albicans (C. albicans; O/W emulsion, 28 days): 5 log
Log Reduction C. albicans (C. albicans; W/O emulsion, 2 days): 1 log
Log Reduction C. albicans (C. albicans; W/O emulsion, 7 days): ≧3 log
Log Reduction C. albicans (C. albicans; W/O emulsion, 14 days): 5 log
Log Reduction C. albicans (C. albicans; W/O emulsion, 28 days): 5 log
Log Reduction S. aureus (S. aureus; O/W emulsion, 2 days): ≧4 log
Log Reduction S. aureus (S. aureus; O/W emulsion, 7 days): 6 log
Log Reduction S. aureus (S. aureus; O/W emulsion, 14 days): 6 log
Log Reduction S. aureus (S. aureus; O/W emulsion, 28 days): 6 log
Log Reduction S. aureus (S. aureus; W/O emulsion, 2 days): 6 log
Log Reduction S. aureus (S. aureus; W/O emulsion, 7 days): 6 log
Log Reduction S. aureus (S. aureus; W/O emulsion, 14 days): 6 log
Log Reduction S. aureus (S. aureus; W/O emulsion, 28 days): 6 log

CCCCOC(=O)C[n+]1ccn(C)c1.[Br-] [Ex 3]
log reduction S. aureus 5 min. (Staphylococcus aureus): <1 log
log reduction S. aureus 30 min. (Staphylococcus aureus): <1 log
log reduction E. coli 5 min. (Escherichia coli): <1 log
log reduction E. coli 30 min. (Escherichia coli): <1 log
log reduction A. pullulans 30 min (Aureobasidium pullulans): <1 log
log reduction A. pullulans 1 h (Aureobasidium pullulans): <1 log
log reduction A. niger 30 min (Aspergillus niger): <1 log
log reduction A. niger 1 h (Aspergillus niger): <1 log
log reduction P. funiculosum 30 min (Penicillium funiculosum): <1 log
log reduction P. funiculosum 1 h (Penicillium funiculosum): <1 log
log reduction P. aeruginosa ATCC 15442 48 h (P. aeruginosa ATCC 15442): >3 log
log reduction P. aeruginosa ATCC 15442 72 h (P. aeruginosa ATCC 15442): >3 log
log reduction E. coli ATCC 10536 48 h (E. coli ATCC 10536): >3 log
log reduction E. coli ATCC 10536 72 h (E. coli ATCC 10536): >3 log
log reduction A. niger ATCC 16404 48 h (A. niger ATCC 16404): <1 log
log reduction A. niger ATCC 16404 72 h (A. niger ATCC 16404): <1 log
log reduction C. albicans ATCC 10231 48 h (C. albicans ATCC 10231): 1.4 log
log reduction C. albicans ATCC 10231 72 h (C. albicans ATCC 10231): 1.7 log
log reduction S. aureus ATCC 6538 48 h (S. aureus ATCC 6538): >3 log
log reduction S. aureus ATCC 6538 72 h (S. aureus ATCC 6538): >3 log
